What was measured:
NCIH460 (lung) cells = assay: Anti-cancer screen (MTT), NCIH460; type: cell-based; settings: Homo sapiens, NCI-H460, NCIH460, 48 hours, MTT; for GI50: read-out: Cell growth inhibition NCIH460 (Lung) GI50; for LC50: read-out: Cell growth inhibition NCIH460 (Lung) LC50; for IC (TGI): read-out: Cell growth inhibition NCIH460 (Lung) TGI
Experimental: (§1) Experimental drugs were screened for anti-cancer activity in three cell lines using five concentrations for each compound. The cell lines —HCT 116 (colon), NCIH460 (lung) and U251 (glioma) were maintained in DMEM containing 10% fetal bovine serum. 96-well microtiter plates are inoculated with cells in 100 μL of cell suspension (5×10^4 cells/mL) for 24 hours at 37° C., 5% CO2, 95% air and 100% relative humidity. A separate plate with these cell lines is also inoculated to determine cell viability before the addition of the compounds (T0).
(§2) Following 24-hours incubation, test compounds were added to the 96 well plates. Each plate contains one of the above cell lines and the following samples in triplicate: five different dilutions (0.01, 0.1, 1, 10 and 100 μM) of four test compounds, appropriate dilutions of a cytotoxic standard and growth medium (untreated) wells. Test compounds were dissolved in DMSO to prepare 20 mM stock solutions on the day of drug addition and serial dilutions were carried out in complete growth medium at 2× strength such that 100 μL added to wells gave final concentrations (0.01, 0.1, 1, 10 and 100 μM) in the well. SAHA was used as standard drug in these experiments.
(§3) For T0 measurement, 24 hours after seeding the cells, 20 μL of 3-(4,5-dimethyl-2-thiazolyl)-2,5-diphenyl-2H-tetrazolium (MTT) solution per well was added to the ‘T0’ plate and incubated for 3 hours at 37° C. in a CO2 incubator. The plate containing cells and test compounds was treated similarly after 48 hours of incubation. After 3 hours of MTT addition, well contents were aspirated carefully followed by addition of 150 μL DMSO per well. Plates were agitated to ensure dissolution of the formazan crystals in DMSO and absorbance was read at 570 nm (A570).
(§4) (Mosmann T. Rapid colorimetric assay for cellular growth and survival: application to proliferation and cytotoxicity assays. J Immunol Methods 1983; 65(1-2): 55-63; Anne Monks et al. Feasibility of high-flux anticancer drug screen using a diverse panel of cultured human tumor cell lines”. JNCI, Vol. 83, No. 11, 1991).

HCT 116 (colon) cells = assay: Anti-cancer screen (MTT), HCT 116; type: cell-based; settings: Homo sapiens, HCT-116, HCT116, 48 hours, MTT; for GI50: read-out: Cell growth inhibition HCT116 (Colon) GI50; for CC50: read-out: Cell growth inhibition HCT116 (Colon) LC50; for IC (TGI): read-out: Cell growth inhibition HCT116 (Colon) TGI
Experimental: as §1, §2, §3, §4

U251 (glioma) cells = assay: Anti-cancer screen (MTT), U251; type: cell-based; settings: Homo sapiens, U-251, U251, 48 hours, MTT; for GI50: read-out: Cell growth inhibition U251 (Glioma) GI50; for LC50 (concentration giving 50% net cell kill relative to the time-zero cell count): read-out: Cell growth inhibition U251 (Glioma) LC50; for IC (TGI): read-out: Cell growth inhibition U251 (Glioma) TGI
Experimental: as §1, §2, §3, §4

[1] = tested on: NCIH460, HCT116 and U251 cells; assay: Anti-cancer screen, mean GI50 over cell lines; type: cell-based; settings: mean over cell lines; read-out: Cell growth inhibition Mean GI50
Experimental: as §1, §2, §3, §4

[2] = tested on: HDAC (Mouse Liver Extract); assay: HDAC inhibition assay using Boc-Lys(Ac)-AMC substrate; type: biochemical; settings: mouse liver enzyme
Experimental: Inhibition of HDAC has been implicated to modulate transcription and to induce apoptosis or differentiation in cancer cells. The fluorometric assay provides a fast and fluorescence based method that eliminates radioactivity, extractions or chromatography, as used in traditional assays. The assay is based on two steps. First, the HDAC fluorometric substrate, which comprises an acetylated lysine side chain, is incubated with a sample containing HDAC activity (Mouse Liver Extract). Deacetylation of the substrate sensitizes the substrate, in the second step; treatment with the Trypsin stop solution produces a fluorophore that can be easily analyzed using fluorescence plate reader. Assay was done in 96-well black microplate and total volume of the assay was […]. […] The plate was pre-incubated at 37° C. for 5 minutes. […] The plate was incubated at 37° C. for 30 min. The reaction was stopped by adding 100 μL, of Trypsin stop solution and incubating at 37° C. for 15-30 min. Measuring the fluorescence at excitation wavelength of 360 nm and emission wavelength of 460 nm monitored the release of AMC. Buffer alone and substrate alone served as blank. […] (Dennis Wegener et al, Anal. Biochem, 321, 2003, 202-208).

Structure (SMILES)	GI50 (NCIH460 (lung) cells)	LC50 (NCIH460 (lung) cells)	IC (TGI) (NCIH460 (lung) cells)	GI50 (HCT 116 (colon) cells)	CC50 (HCT 116 (colon) cells)	IC (TGI) (HCT 116 (colon) cells)	GI50 (U251 (glioma) cells)	LC50 (concentration giving 50% net cell kill relative to the time-zero cell count) (U251 (glioma) cells)	IC (TGI) (U251 (glioma) cells)	GI50 [1]	HDAC inhibition % (1 μM) [2]	HDAC inhibition % (10 μM) [2]	IC50 [2]
COc1ccc(/C(=C\c2ccc(SC)cc2)C(=O)NCc2ccc(C(=O)NO)cc2)cc1 [Compound 57, 4-((2-(4-Methoxyphenyl)-3-(4-methylthiophenyl)acrylamido)methyl)-N-hydroxybenzamide]	3 µM	33 µM	8 µM	1.8 µM	54 µM	8 µM	0.2 µM	60 µM	0.4 µM	1.7 µM	–	–	–
COc1cc(/C=C(/C(=O)NCc2ccc(C(=O)Nc3ccccc3N)cc2)c2ccc(F)cc2)cc(OC)c1 [Compound 17, N-(2-Aminophenyl)-4-((3-(3,5-dimethoxyphenyl)-2-(4-fluorophenyl)acrylamido)methyl)benzamide]	38 µM	> 100 µM	80 µM	29 µM	> 100 µM	69 µM	–	–	–	33.5 µM	25.7%	20.3%	–
CSc1ccc(/C=C(/C(=O)NCc2ccc(/C=C/C(=O)NO)cc2)c2ccc(F)cc2)cc1 [Compound 76, (1E)-N-(4-(3-(Hydroxyamino)-3-oxoprop-1-enyl)benzyl)-2-(4-fluorophenyl)-3-(4-methylthiophenyl)acrylamide]	4.2 µM	> 100 µM	42.5 µM	5 µM	> 100 µM	60 µM	–	–	–	4.6 µM	42.6%	89.8%	0.06 µM
COc1ccc(/C(=C\c2ccc(OC)c(OC)c2)C(=O)NCc2ccc(C(=O)Nc3ccccc3N)cc2)cc1 [Compound 27, N-(2-Aminophenyl)-4-((3-(3,4-dimethoxyphenyl)-2-(4-methoxyphenyl)acrylamido)methyl)benzamide]	2.1 µM	–	> 100 µM	0.4 µM	> 100 µM	> 100 µM	–	–	–	1.2 µM	37.1%	47.2%	–
CSc1ccc(/C=C(/C(=O)NCc2ccc(C(=O)Nc3ccccc3N)cc2)c2ccccc2Cl)cc1 [Compound 23, N-(2-Aminophenyl)-4-((3-(4-methylthiophenyl)-2-(2-chlorophenyl)acrylamido)methyl)benzamide]	34 µM	> 100 µM	> 100 µM	4 µM	98 µM	8 µM	> 100 µM	> 100 µM	> 100 µM	19 µM	–	–	–
COc1ccc(/C(=C\c2ccc(SC)cc2)C(=O)NCc2ccc(C(=O)Nc3ccccc3N)cc2)cc1 [Compound 16, N-(2-Aminophenyl)-4-((3-(4-methylthiophenyl)-2-(4-methoxyphenyl)acrylamido)methyl)benzamide]	45 µM	> 100 µM	97 µM	40 µM	> 100 µM	82 µM	–	–	–	42.5 µM	30.7%	46.0%	–
Nc1ccccc1NC(=O)c1ccc(CNC(=O)/C(=C/c2ccncc2)c2ccc(F)cc2)cc1 [Compound 15, N-(2-Aminophenyl)-4-((3-(pyridin-4-yl)-2-(4-fluorophenyl)acrylamido)methyl)benzamide]	8.8 µM	95 µM	60 µM	2.7 µM	94 µM	30 µM	–	–	–	5.8 µM	42.7%	56.9%	3.8 µM
COc1ccc(/C(=C\c2ccc(SC)cc2)C(=O)NCCCCCC(=O)NO)cc1 [Compound 92, 6-(2-(4-Methoxyphenyl)-3-(4-methylthiophenyl)acrylamido)-N-hydroxy hexanamide]	6 µM	82 µM	40 µM	7.5 µM	87 µM	46 µM	10 µM	76 µM	16 µM	7.8 µM	–	–	–
CSc1ccc(/C=C(/C(=O)NCCCCCC(=O)NO)c2ccccc2F)cc1 [Compound 94, 6-(2-(2-Fluorophenyl)-3-(4-methylthiophenyl)acrylamido)-N-hydroxy hexanamide]	4.2 µM	74 µM	26 µM	3.3 µM	80 µM	22 µM	1 µM	70 µM	10 µM	2.8 µM	–	–	–
Nc1ccccc1NC(=O)c1ccc(CNC(=O)/C(=C/c2ccnc3ccccc23)c2ccc(F)cc2)cc1 [Compound 22, N-(2-Aminophenyl)-4-((3-(quinolin-4-yl)-2-(4-fluorophenyl)acrylamido)methyl)benzamide]	7.6 µM	> 100 µM	80 µM	7.9 µM	> 100 µM	70 µM	–	–	–	7.8 µM	32.9%	56.1%	3.2 µM
Nc1ccccc1NC(=O)c1ccc(CNC(=O)/C(=C/c2ccc(F)c(C(F)(F)F)c2)c2ccc([N+](=O)[O-])cc2)cc1 [Compound 5, N-(2-Aminophenyl)-4-((3-(4-fluoro-3-trifluoromethylphenyl)-2-(4-nitrophenyl)acrylamido)methyl)benzamide]	5.5 µM	> 100 µM	> 100 µM	3.1 µM	> 100 µM	11 µM	–	–	–	4.3 µM	0.0%	−27.4%	–
O=C(CCCCCNC(=O)/C(=C/C1CC1)c1ccc(F)cc1)NO [Compound 93, 6-(2-(4-Fluorophenyl)-3-(cyclopropyl)acrylamido)-N-hydroxy hexanamide]	> 100 µM	> 100 µM	> 100 µM	54 µM	> 100 µM	> 100 µM	92 µM	> 100 µM	> 100 µM	73 µM	–	–	–
CSc1ccc(/C=C(/C(=O)NCc2ccc(C(=O)NO)cc2)c2ccc(C)cc2)cc1 [Compound 58, 4-((2-(4-Methylphenyl)-3-(4-methylthiophenyl)acrylamido)methyl)-N-hydroxybenzamide]	2.1 µM	81 µM	6 µM	2.8 µM	65 µM	18 µM	21 µM	80 µM	35 µM	8.6 µM	–	–	–
